Data on two compounds can be found in patent US10780094B2, “Use of carbonic anhydrase inhibitors for treatment of neurological and psychiatric disorders” (New York University, priority 2016, dated 2020).

For test [1], the system named is mitochondria isolated from ECs (D3 cells). The experiment in a line: Mitochondrial H2O2 production (Amplex Red) after Aβ challenge. As to conditions: ATZ at lower concentrations than MTZ. The test is classed as cell-based, human. How it is done:
Cells were plated on 6-wells plates and treated with the peptides and/or drugs for the experimental times. Plates were centrifuged for 10 min at 1.000 RPM and washed twice with PBS 1×. After that, 500 μL of homogenization buffer (75 mM sucrose, 225 mM mannitol, 5 mM Tris-HCl pH=7.4, 1 mM PMSF and protease inhibitor cocktail) was added. Cells were scraped in this buffer, collected in glass tubes and grinded exactly 80 times with a pellet pestle, keeping everything always on ice. Cells were then centrifuged at 2.800 RPM for 5 min at 4° C. The supernatant was collected and centrifuged again at 2.800 RPM for 5 min at 4° C. The supernatant was again collected and centrifuged at 10.500 RPM for another 5 min at 4° C. After this, the supernatant was discarded and the pellet was re-suspended in 100 μL of homogenization buffer. The samples were centrifuged again at 10.500 RPM for 10 min at 4° C., the supernatant was discarded and the pellets (mitochondrial fractions) were re-suspended on 50 μL of homogenization buffer. […] After that, mitochondrial fractions containing equal amounts of mitochondrial proteins were placed on 96-wells microplate absorbance microtiter (ThermoFisher, Waltham, Mass., US) and the AmplexRed assay was ran, following the instructions provided by the manufacturer. Absorbance was measured by using a FlexStation (Molecular Devices, Sunnyvalem Calif., US).

The next test deals with Normal Human Astrocytes. The experiment in a line: Cell Death ELISAplus, Aβ-induced apoptosis (fragmented nucleosomes). The test is classed as cell-based. As to conditions: 1 day. The protocol: The extent of apoptosis caused by Aβ in the presence or absence of MTZ was assessed by quantitation of nucleosome formation using Cell Death ELISA^plus (Roche Applied Science, Indianapolis, Ind.). Briefly, after incubation with the peptides, plates were centrifuged in a Beckman J-6B centrifuge (10 min; 1,000 rpm), cells lysed, and DNA-histone complexes (nucleosomes) quantitated by Cell Death ELISA, as previously described (Fossati et al., 2010).

The subject of a further test is Glioma cells. The experiment in a line: Cellular ROS (CellROX). The test is classed as cell-based, human. As to conditions: Aβ42 in the presence or absence of MTZ; 24 hours. How it is done:
For the last 30 minutes, the cells were incubated in the experimental medium at 37° C. with 5 μM CellROX Deep Red (Life Technologies) and 1 μg/ml Hoechst Stain (Immunochemistry Technologies, Bloomington, Minn.), as described by the manufacturer, followed by washes. Fluorescence was measured using a FlexStation 3 Multi-Mode Microplate Reader (Molecular Devices, Sunnyvale, Calif.).

Another test concerns caspase 9 in glial cells. The test is described as follows: Caspase-Glo 9 activity after Aβ challenge. Type of test: cell-based, human. The protocol:
(§1) Caspase 9 and caspase 3/7 activation was measured by luminescent assays (Caspase-Glo 9 and caspase-Glo 3/7, Promega, Madison, Wis.), in cells treated with the Aβ peptides in DMEM without FBS. Briefly, 10,000 cells/well were plated in 96 wells plates and incubated for 24 hours with the freshly solubilized Aβ peptides. Caspase-Glo reagent was added to the cell cultures resulting in cell lysis, followed by caspase cleavage of the substrate and generation of a luminescent signal produced by the luciferase reaction. After 40 minutes incubation, the amount of caspase activity was evaluated in a plate-reading luminometer (Synergy HT Multi-Mode Microplate Reader, Biotek, Winooski, Vt.) as described in (Fossati et al., 2012b). To inhibit non-specific background activity, the proteasome inhibitor MG-132 was added to the Caspase-Glo reagent before the experiment as indicated by the manufacturer. In all cases results are expressed as fold-change compared to untreated control cells.

The subject of test [2] is cerebral microvascular endothelial cells (D3). The experiment in a line: Aβ-induced mitochondrial Cytochrome C release. Type of test: cell-based, human. As to conditions: Example 3. The protocol: Both EC and SH-SY5Y cells were plated on to glass chamber slides (Thermo Fisher Scientific), pre-coated with either collagen-I or poly-d-lysine (for ECs and SH-SY5Y cells respectively). After seeding, cells were allowed to attach for 1 day before treatment with the different peptides for 1-3 days, as above. Cells were washed with ice-cold PBS, fixed with 4% paraformaldehyde (10 min at room temperature) and blocked for 1 h with 20 mg/ml BSA in PBST (PBS containing 0.3% Triton X-100). Slides were further incubated with mouse anti-CytC monoclonal antibody (BD Biosciences; 1:200 dilution in PBST containing 5 mg/ml BSA; 2 h at room temperature) followed by Alexa Fluor® 488-conjugated anti-(mouse IgG) antibody (Invitrogen; 1:200 in PBST with 5 mg/ml BSA; 1 h at room temperature). Fluorescence signals were visualized in a Nikon Eclipse E 800 deconvolution microscope using NIS Elements software (Nikon Instruments) for image acquisition and processing, and AutoQuant (Media Cybernetics) for 3D deconvolution. The effect of methazolamide in preventing the Aβ-induced release of CytC from the mitochondria into the cytoplasm was evaluated in EC and SH-SY5Y cultures. […]

The test system of test [3] is caspase 3/7 in glial cells. The experiment in a line: Active caspase 3 staining and Caspase-Glo 3/7 activity after Aβ challenge. Type of test: cell-based, human. As to conditions: Aβ co-incubated with MTZ at both concentrations (100, 300 μM); 24 hours. How it is done: as §1
(§2) SHSY-5Y and Glioma cells were plated on chamber slides as above. Slides were pre-coated with Poly-D-Lysine 30 μg/ml for 2 hours for SHSY-5Y cells. […]

Test [4] concerns caspase 3/7 in neuronal SHSY-5Y cells. The test is described as above. Type of test: cell-based, human. The following applies: Aβ co-incubated with MTZ at both concentrations (100, 300 μM); 24 hours. The protocol: as §1, §2

Take `CC(=O)Nc1nnc(S(N)(=O)=O)s1` [ATZ, acetazolamide]: in test [1], the “inhibition of H2O2 production, compared with MTZ” value is reported as “more dramatic effect on the inhibition of H2O2 production”.
On to `CC(=O)/N=c1/sc(S(N)(=O)=O)nn1C` [MTZ, methazolamide], for which the “DNA fragmentation after Aβ challenge” value with Normal Human Astrocytes (100 μM MTZ) was “significantly effective at reducing DNA fragmentation”. In addition, the “Aβ-mediated increase in fragmented nucleosomes” value in the test with Normal Human Astrocytes (300 μM MTZ, Aβ42 10 μM) is reported as “completely prevented”. Moreover, the “levels of cellular ROS (CellROX)” value in the test on Glioma cells is given as “did not significantly change”. The “caspase 9 over-activation” value with caspase 9 in glial cells (100 or 300 μM MTZ, 10 μM Aβ42, 24 hours) is “significantly reduced”. In addition, the “caspase 9 activity, drug alone” value in the test on caspase 9 in glial cells (MTZ alone in absence of Aβ) is recorded as “did not have any effect”. In addition, the “CytC localization (immunocytochemistry)” value in test [2] (Aβ40-Q22 25 μM or Aβ40/42 WT 10 μM, 24 h) is recorded as “retained in the mitochondria”. For the same compound, the “release of CytC, cells with diffuse green staining as % of total cells” value in test [2] (FIG. 23B) was “prevented”. Also, the “active-caspase 3 staining and activity of caspases 3/7” value in test [3] and in test [4] was “greatly suppressed” each time.
